PMC8228597, “Asperflaloids A and B from Aspergillus flavipes DZ-3, an Endophytic Fungus of Eucommia ulmoides Oliver” (Molecules, 2021)

Experiments:
[1] = DPPH radical scavenging test (antioxidant activity); conditions: for IC50: − means no activity
Experimental: The DPPH scavenging was assayed according to the reported method. The DPPH radical scavenging test was performed in 96-well microplates. Samples (compounds 1–12) were added to 180 μL (150 μmol/L) DPPH solution in EtOH at 20 μL solutions of different concentrations between 10 and 500 μM. After 30 min of light avoidance, absorbance at 517 nm using a microplate reader (Tecan Trading AG, Männedorf, Switzerland) was measured and the percentage of activity was calculated. All assays were performed in three replicates, and vitamin C was used as a positive control.

α-glucosidase = α-glucosidase (Saccharomyces cerevisiae, UniProt P53341); test: α-glucosidase inhibitory assay; assay type: biochemical; conditions: − means no activity
Experimental: The α-glucosidase inhibitory effect was assessed as described in our recently published paper.

Chain of α-glucosidase (P53341 whole entry): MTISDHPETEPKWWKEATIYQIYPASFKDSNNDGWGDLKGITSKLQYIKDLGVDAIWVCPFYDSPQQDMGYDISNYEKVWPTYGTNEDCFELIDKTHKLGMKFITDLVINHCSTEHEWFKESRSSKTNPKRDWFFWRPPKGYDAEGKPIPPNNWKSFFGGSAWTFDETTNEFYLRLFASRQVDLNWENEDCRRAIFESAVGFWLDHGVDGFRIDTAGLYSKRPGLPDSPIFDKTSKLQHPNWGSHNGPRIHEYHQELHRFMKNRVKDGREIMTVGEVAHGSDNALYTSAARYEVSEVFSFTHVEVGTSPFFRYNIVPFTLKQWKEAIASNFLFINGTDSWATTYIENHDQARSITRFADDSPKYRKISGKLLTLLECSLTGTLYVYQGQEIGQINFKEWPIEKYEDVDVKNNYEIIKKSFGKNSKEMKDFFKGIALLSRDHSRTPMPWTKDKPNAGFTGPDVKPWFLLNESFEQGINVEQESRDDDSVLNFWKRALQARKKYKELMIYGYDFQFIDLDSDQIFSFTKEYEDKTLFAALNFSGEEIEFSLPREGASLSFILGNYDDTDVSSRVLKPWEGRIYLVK

In the case of `O=C(O)Cc1ccc(O)c(O)c1` [Compound 7, 3,4-dihydroxybenzeneacetic acid], the “Antioxidant % Inhibition (500 μM)” value [1] is reported as 96.6% and the IC50 [1] is reported as 14.4 µM.

In the case of `N#CCc1ccc(O)cc1` [Compound 12, 4-hydroxyphenylacetonitrile], the “Antioxidant % Inhibition (500 μM)” value [1] is reported as under 50% and the IC50 [1] is reported as over 500 µM.

With phenylacetic acid [Compound 9] the IC50 (α-glucosidase) was over 1000 µM, the “Antioxidant % Inhibition (500 μM)” value [1] was under 50% and the IC50 [1] was over 500 µM.

For `NC(=O)Cc1ccc(O)cc1` [Compound 10, 4-hydroxybenzeneacetamide], the “Antioxidant % Inhibition (500 μM)” value [1] was 64.9% and the IC50 [1] was 339 µM.

For `COC(=O)Cc1ccc(O)c(O)c1` [Compound 8, 3,4-dihydroxyphenylacetic acid methyl ester], the “Antioxidant % Inhibition (500 μM)” value [1] was 92% and the IC50 [1] was 27.1 µM.

With `C/C(=C/C(=O)NCCCC(=O)O)CCO` [Compound 6, fuscoatramide] the “Antioxidant % Inhibition (500 μM)” value [1] was under 50% and the IC50 [1] was over 500 µM.

For `O=C(O)[C@H](Cc1ccc(O)cc1)n1cnc2ccccc2c1=O` [Compound 1, Asperflaloid A], the “Antioxidant % Inhibition (500 μM)” value [1] was under 50% and the IC50 [1] was over 500 µM.

In the case of `COC(=O)Cc1ccc(O)cc1` [Compound 11, 4-hydroxy phenylacetic acid methyl ester], the “Antioxidant % Inhibition (500 μM)” value [1] is reported as under 50% and the IC50 [1] is reported as over 500 µM.

For `O=C1O[C@H]([C@@H](O)CO)C(O)=C1O` [Vitamin C, vitamin C, reference compound], the “Antioxidant % Inhibition (500 μM)” value [1] was 96.4% and the IC50 [1] was 26.7 µM.

With `O=C(O)c1ccccc1-n1ncnc1Cc1ccc(O)cc1` [Compound 4, penipanoid A] the “Antioxidant % Inhibition (500 μM)” value [1] was under 50% and the IC50 [1] was over 500 µM.

With `O=c1[nH]c(Cc2ccc(O)cc2)nc2ccccc12` [Compound 3, 2-(4-hydroxybenzyl)quinazolin-4(3H)-one] the “Antioxidant % Inhibition (500 μM)” value [1] was under 50% and the IC50 [1] was over 500 µM.

In the case of `CC(=O)Nc1ccccc1C(=O)OC[C@@H](O)CO` [Compound 2, Asperflaloid B], the “Antioxidant % Inhibition (500 μM)” value [1] is reported as under 50% and the IC50 [1] is reported as over 500 µM.

With `C=CC(C)(C)[C@]12C=C(OC)C(=O)N3/C(=C/c4c[nH]cn4)C(=O)N[C@@]31N(OC)c1ccccc12` [Compound 5, oxaline] the “Antioxidant % Inhibition (500 μM)” value [1] was under 50% and the IC50 [1] was over 500 µM.
